No end group written: not given here.
What was measured:
Assay type in all cases: cell-based
[1] = test system: VERO/hSLAM, BHK-21, and MDBK cell lines; test: Cytotoxicity, MTT assay; conditions: 2 and 24 h, peptides […] to 100 μM
[2] = test system: canine distemper virus (CDV, strain Onderstepoort); test: Antiviral activity against CDV, plaque assay, time of addition assays; conditions: VERO/hSLAM cells, co-treatment, virus pre-treatment, cell pre-treatment, post-treatment
[3] = test system: Schmallenberg virus (SBV); conditions: BHK-21 cells, SBV 200 TCID50 incubated with peptide 1 h, CPE at 72 h, MTT staining
[4] = test system: caprine herpesvirus type 1 (CpHV-1, reference Swiss strain E/CH); test: Antiviral activity against CpHV-1, plaque assay, time of addition assays; conditions: MDBK cells
[5] = test system: bovine herpesvirus type 1 (BoHV-1, Cooper strain); test: Antiviral activity against BoHV-1, plaque assay, time of addition assays; conditions: MDBK cells

Substance | Cytotoxicity (in words) [1] | Inhibitory effect against CDV in all the time-addition assays (in words) [2] | Activity against SBV infection (in words) [3] | Antiviral action against CpHV-1 (in words) [4] | Antiviral action against BoHV-1 (in words) [5]
H-GLADFLNKAVGKVVDFVKS-NH2 [Deserticolin-1, amphibian peptide secreted by Crinia deserticola] | not cytotoxic even at higher concentrations tested | did not show an inhibitory effect | any activity | no antiviral action | no antiviral action
RIGVLLARLPKLFSLFKLMGKKV-NH2 [RV-23] |  |  | able to reduce SBV infection with a higher efficacy |  | 
H-GILDAIKAIAKAAG-OH [Hylaseptin-P1, amphibian peptide derived from Leptopelis aubryi] | not cytotoxic even at higher concentrations tested | did not show an inhibitory effect | any activity | no antiviral action | no antiviral action

Source: publication PMC10537403 (Viruses, 2023)
